From patent publication US4451457A, “Cyclodextrin and method for promoting the proliferation of intestinal bifidobacteria” (Kureha Kagaku Kogyo Kabushiki Kaisha, priority 1981, dated 1984)

Columns and labels:
[1] = Acute toxicity, LD50 in mice; assay type: in vivo, Mouse; settings: in vivo, male mouse
Protocol: (§1) Each cyclodextrin (α-, β- and γ-) was administered via the following routes to rats and mice and LD50 was measured.

Mouse = test: Acute toxicity, LD50 in mice; assay type: in vivo; settings: female mouse
Protocol: as §1

[2] = Acute toxicity, LD50 in rats; assay type: in vivo, rat; settings: in vivo, male rat
Protocol: as §1

rat = test: Acute toxicity, LD50 in rats; assay type: in vivo; settings: female rat
Protocol: as §1

bifidobacteria = test: Intestinal proliferation of bifidobacteria in mice, viable count in feces; assay type: in vivo, female C3H/He mice; settings: for Rate of proliferation (B/A), bifidobacteria / Viable count 7 days after (B) administration, bifidobacteria: 2.0 g/kg/day; for Rate of proliferation (B/A), bifidobacteria: 7 days after / before; for Viable count 7 days after (B) administration, bifidobacteria / Viable count before (A) administration, bifidobacteria: average of five mice
Protocol: The activity of cyclodextrin in promoting the intestinal proliferation of bifidobacteria was recognized by the results of test as described below. Namely, cyclodextrin was administered orally to test animals such as mouse at the dose of 2 g/kg of body weight per day for 2 weeks, and the number of viable intestinal bacteria such as bifidobacteria, Escherichia coli, Lactobacilli and Bacteroides sp. in the feces of the test animal seven days after the administration were counted by the conventional method. […] Namely, when the bifidobacteria-proliferating agent of the invention is administered to the living body, it is possible to proliferate only bifidobacteria in the intestine of the living body without disturbing the intraintestinal bacterial flora.
(§2) Each solution or suspension was administered to female C3H/He mice at 8th week after birth, one group consisting of 5 animals and the number of groups being four, the dosage being 2.0 g of cyclodextrin/kg of body weight/day, continuously for 2 weeks.
(§3) Before and 7 days after the administration, feces of each mouse was collected, and after diluting the collected feces with 100 times by weight of an anaerobic phosphate buffer and grinding the diluted feces, each 0.1 ml of the ground feces was inoculated on each culture medium (refer to Table 3) for the specified bacterial species, and the thus inoculated culture media were incubated at 37° C. for one to five days under the aerobic conditions or anaerobic conditions (according to the anaerobic grove box method).
BS agar anaerobic, 37° C., 5 days
(§4) After the incubation was over, the number of bifidobacteria, Escherichia coli, Lactobacilli and Bacteroides sp. in the culture medium was counted. The results are shown in Tables 4 to 7, the counts being the average of five mice.

Lactobacilli = test: Viable count of Lactobacilli in feces of mice; assay type: in vivo, female C3H/He mice; settings: for Rate of proliferation (B/A), Lactobacilli / Viable count 7 days after (B) administration, Lactobacilli: 2.0 g/kg/day; for Rate of proliferation (B/A), Lactobacilli: 7 days after / before; for Viable count 7 days after (B) administration, Lactobacilli / Viable count before (A) administration, Lactobacilli: average of five mice
Protocol: as §2, §3, §4

Bacteroides sp. = test: Viable count of Bacteroides sp. in feces of mice; assay type: in vivo, female C3H/He mice; settings: for Rate of proliferation (B/A), Bacteroides sp. / Viable count 7 days after (B) administration, Bacteroides sp.: 2.0 g/kg/day; for Rate of proliferation (B/A), Bacteroides sp.: 7 days after / before; for Viable count 7 days after (B) administration, Bacteroides sp. / Viable count before (A) administration, Bacteroides sp.: average of five mice
Protocol: as §2, §3
NBGT agar same as above
as §4

Escherichia coli = test: Viable count of Escherichia coli in feces of mice; assay type: in vivo, female C3H/He mice; settings: for Rate of proliferation (B/A), Escherichia coli / Viable count 7 days after (B) administration, Escherichia coli: 2.0 g/kg/day; for Rate of proliferation (B/A), Escherichia coli: 7 days after / before; for Viable count 7 days after (B) administration, Escherichia coli / Viable count before (A) administration, Escherichia coli: average of five mice
Protocol: as §2, §3
DHL agar aerobic, 37° C., one day
as §4

Molecule | LD50 ([1]; ip, intraperitoneal) [mg/kg] | LD50 ([1]; sc, subcutaneous) [mg/kg] | LD50 ([1]; oral) [mg/kg] | LD50 (Mouse; intraperitoneal) [mg/kg] | LD50 (Mouse; oral) [mg/kg] | LD50 (Mouse; subcutaneous) [mg/kg] | LD50 ([2]; ip, intraperitoneal) [mg/kg] | LD50 ([2]; sc, subcutaneous) [mg/kg] | LD50 ([2]; oral) [mg/kg] | LD50 (rat; intraperitoneal) [mg/kg] | LD50 (rat; oral) [mg/kg] | LD50 (rat; subcutaneous) [mg/kg] | Rate of proliferation (B/A), bifidobacteria (bifidobacteria) | Viable count 7 days after (B) administration, bifidobacteria (bifidobacteria) | Viable count before (A) administration, bifidobacteria (bifidobacteria) | Rate of proliferation (B/A), Lactobacilli (Lactobacilli) | Viable count 7 days after (B) administration, Lactobacilli (Lactobacilli) | Viable count before (A) administration, Lactobacilli (Lactobacilli) | Rate of proliferation (B/A), Bacteroides sp. (Bacteroides sp.) | Viable count 7 days after (B) administration, Bacteroides sp. (Bacteroides sp.) | further results
OC[C@H]1O[C@@H]2O[C@H]3[C@H](O)[C@@H](O)[C@@H](O[C@H]4[C@H](O)[C@@H](O)[C@@H](O[C@H]5[C@H](O)[C@@H](O)[C@@H](O[C@H]6[C@H](O)[C@@H](O)[C@@H](O[C@H]7[C@H](O)[C@@H](O)[C@@H](O[C@H]1[C@H](O)[C@H]2O)O[C@@H]7CO)O[C@@H]6CO)O[C@@H]5CO)O[C@@H]4CO)O[C@@H]3CO [α-cyclodextrin] | > 900 | > 900 | > 12500 | > 900 | > 12500 | > 900 | > 1200 | > 1500 | > 12000 | > 1200 | > 12000 | > 1500 |  |  |  |  |  |  |  |  | 
OC[C@H]1O[C@@H]2O[C@H]3[C@H](O)[C@@H](O)[C@@H](O[C@H]4[C@H](O)[C@@H](O)[C@@H](O[C@H]5[C@H](O)[C@@H](O)[C@@H](O[C@H]6[C@H](O)[C@@H](O)[C@@H](O[C@H]7[C@H](O)[C@@H](O)[C@@H](O[C@H]8[C@H](O)[C@@H](O)[C@@H](O[C@H]1[C@H](O)[C@H]2O)O[C@@H]8CO)O[C@@H]7CO)O[C@@H]6CO)O[C@@H]5CO)O[C@@H]4CO)O[C@@H]3CO [β-cyclodextrin] | > 900 | > 900 | > 12500 | > 900 | > 12500 | > 900 | > 1200 | > 1500 | > 12000 | > 1200 | > 12000 | > 1500 | 1385 | 1.8 × 10^8 per g of the feces | 1.3 × 10^5 per g of the feces | 1.47 | 2.2 × 10^9 per g of the feces | 1.5 × 10^9 per g of the feces | 1.06 | 3.7 × 10^8 per g of the feces | Viable count before (A) administration, Bacteroides sp. (Bacteroides sp.): 3.5 × 10^8 per g of the feces; Rate of proliferation (B/A), Escherichia coli (Escherichia coli): 1.45; Viable count 7 days after (B) administration, Escherichia coli (Escherichia coli): 5.8 × 10^6 per g of the feces; Viable count before (A) administration, Escherichia coli (Escherichia coli): 4.0 × 10^6 per g of the feces
OC[C@H]1O[C@@H]2O[C@H]3[C@H](O)[C@@H](O)[C@@H](O[C@H]4[C@H](O)[C@@H](O)[C@@H](O[C@H]5[C@H](O)[C@@H](O)[C@@H](O[C@H]6[C@H](O)[C@@H](O)[C@@H](O[C@H]7[C@H](O)[C@@H](O)[C@@H](O[C@H]8[C@H](O)[C@@H](O)[C@@H](O[C@H]9[C@H](O)[C@@H](O)[C@@H](O[C@H]1[C@H](O)[C@H]2O)O[C@@H]9CO)O[C@@H]8CO)O[C@@H]7CO)O[C@@H]6CO)O[C@@H]5CO)O[C@@H]4CO)O[C@@H]3CO [γ-cyclodextrin] | > 900 | > 900 | > 12500 | > 900 | > 12500 | > 900 | > 1200 | > 1500 | > 12000 | > 1200 | > 12000 | > 1500 | 90 | 1.8 × 10^6 per g of the feces | 2.0 × 10^4 per g of the feces | 0.78 | 7.0 × 10^8 per g of the feces | 9.0 × 10^8 per g of the feces | 3.00 | 3.0 × 10^8 per g of the feces | Viable count before (A) administration, Bacteroides sp. (Bacteroides sp.): 1.0 × 10^8 per g of the feces; Rate of proliferation (B/A), Escherichia coli (Escherichia coli): 0.93; Viable count 7 days after (B) administration, Escherichia coli (Escherichia coli): 7.0 × 10^6 per g of the feces; Viable count before (A) administration, Escherichia coli (Escherichia coli): 7.5 × 10^6 per g of the feces
dextrin [reference compound] |  |  |  |  |  |  |  |  |  |  |  |  | 0.70 | 1.6 × 10^5 per g of the feces | 2.3 × 10^5 per g of the feces | 1.20 | 6.0 × 10^8 per g of the feces | 5.0 × 10^8 per g of the feces | 2.50 | 8.0 × 10^8 per g of the feces | activity to the proliferation of bifidobacteria, in words (bifidobacteria; mouse, oral, Table 7): did not exhibit such an activity; Viable count before (A) administration, Bacteroides sp. (Bacteroides sp.): 3.2 × 10^8 per g of the feces; Rate of proliferation (B/A), Escherichia coli (Escherichia coli): 0.80; Viable count 7 days after (B) administration, Escherichia coli (Escherichia coli): 7.2 × 10^6 per g of the feces; Viable count before (A) administration, Escherichia coli (Escherichia coli): 9.0 × 10^6 per g of the feces
